# Reference: US6699686B1, “Modified nuclear glucocorticoid receptor, fusion protein, and DNA fragments coding for said receptor and said fusion protein” (Association pour le Development de la Recherche en …, priority 1996, dated 2004)
# Molecular target: T1, Cre-LBD[GR(I747/T)] (Homo sapiens, UniProt P04150, I747T)
# T1 construct: the region containing the mutated LBD of HG1 [aa 500-777]; Cre recombinase aa 1-343 (bacteriophage P1); F region of the human estrogen receptor (aa 553-595); expressed in transfected cells
# T1 sequence (P04150 500-777 I747T): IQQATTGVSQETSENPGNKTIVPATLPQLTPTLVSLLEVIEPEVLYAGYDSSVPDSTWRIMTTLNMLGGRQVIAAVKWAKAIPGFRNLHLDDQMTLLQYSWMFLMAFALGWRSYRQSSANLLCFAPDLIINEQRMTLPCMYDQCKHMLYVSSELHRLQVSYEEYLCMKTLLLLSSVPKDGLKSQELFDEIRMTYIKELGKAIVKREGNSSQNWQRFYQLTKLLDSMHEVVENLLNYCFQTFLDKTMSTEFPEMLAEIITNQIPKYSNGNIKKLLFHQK
# Assay: PCR test of excision between loxP sites after transient transfection of pCre-LBD[GR(I747/T)] in RXRα+/−(LNL) F9 cells
# Type: cell-based
# Conditions: ligand 10^−6 M, 72 hours, murine F9 RXRα+/−(LNL) cells
# Experimental: [optionally cotransfected with 5 μg of the vector pRXRα^(LNL) for the HeLa cells] with the aid of an electroporator (Bio-Rad gene pulser), set at 200 V and 960 μF. The cells were then inoculated at 10^6 cells per 100 mm dish and treated, if necessary, with ligands.
# The DNA amplifications were carried out using the “Polymerase Chain Reaction” (PCR) technique according to the protocol described by Chen and Evans (60). The primers used are: SB211 and PZ105, having respectively as nucleotide sequence 5′-[…]-3′ (SEQ ID NO: 10) and 5′-[…]-3′ (SEQ ID NO: 11). After denaturation for 8 min at 94° C., 2.5 units of Taq polymerase are added. The amplification is carried out by performing 35 cycles (30 sec. at 94° C., 30 sec. at 50° C.) followed by one cycle (30 sec. at 94° C., 30 sec. at 50° C., 5 min at 72° C.), the product of which is stored at 4° C.
# The products of the reactions were separated on polyacrylamide (10%) or agarose (2.5%) gel. The DNA was visualized by UV followed by ethidium bromide staining, or by Southern blotting (42).
# The products of the reaction were separated on acrylamide gel and stained with ethidium bromide.
smiles,measurement,value
"C[C@]12CCC(=O)C=C1CC[C@@H]1[C@@H]2[C@@H](O)C[C@@]2(C)[C@H]1CC[C@]2(O)C(=O)CO [Cortisol, cortisol]",excision of sequences between loxP sites (191 bp PCR fragment of recombinant allele),no fragment of this size is observed
